Entries after “also recorded” stand apart in the source; their conditions may differ. Activity calls are given as the source filed them. How the calls were made is not given here.

The data set relates to CCRIS mutagenicity, Ames/micronucleus/aberration tests. Nature of the data set: CCRIS mutagenicity studies.
[1] abbreviates: Test System: AMES SALMONELLA TYPHIMURIUM, Strain/Indicator: TA98, Metabolic Activation: NONE, Method: PREINCUBATION
Where [2] appears, read: Test System: AMES SALMONELLA TYPHIMURIUM, Strain/Indicator: TA98, Metabolic Activation: NONE, Method: STANDARD PLATE.
Setting [3] is: Test System: AMES SALMONELLA TYPHIMURIUM, Strain/Indicator: TA98, Metabolic Activation: RAT, LIVER, S-9, AROCLOR 1254, Method: PREINCUBATION
The mark [4] stands for this setting: Test System: AMES SALMONELLA TYPHIMURIUM, Strain/Indicator: TA100, Metabolic Activation: NONE, Method: PREINCUBATION
Where [5] appears, read: Test System: AMES SALMONELLA TYPHIMURIUM, Strain/Indicator: TA100, Metabolic Activation: NONE, Method: STANDARD PLATE.
[6] abbreviates: Test System: AMES SALMONELLA TYPHIMURIUM, Strain/Indicator: TA100, Metabolic Activation: RAT, LIVER, S-9, AROCLOR 1254, Method: PREINCUBATION
Setting [7] is: Test System: AMES SALMONELLA TYPHIMURIUM, Strain/Indicator: TA1535, Metabolic Activation: NONE, Method: PREINCUBATION
Where [8] appears, read: Test System: AMES SALMONELLA TYPHIMURIUM, Strain/Indicator: TA1537, Metabolic Activation: NONE, Method: PREINCUBATION
The mark [9] stands for this setting: Test System: AMES SALMONELLA TYPHIMURIUM, Strain/Indicator: TA98, Metabolic Activation: RAT, LIVER, S-9, AROCLOR 1254, Method: STANDARD PLATE.
Where [10] appears, read: Test System: AMES SALMONELLA TYPHIMURIUM, Strain/Indicator: TA100, Metabolic Activation: RAT, LIVER, S-9, AROCLOR 1254, Method: STANDARD PLATE.

With `OCc1ccco1`, the mutagenic call is, setting by setting: (Test System: AMES SALMONELLA TYPHIMURIUM, Strain/Indicator: TA98, Metabolic Activation: HAMSTER LIVER S-9, AROCLOR 1254 (10%), Method: PREINCUBATION) “inactive; negative”; under setting [1], “inactive; negative”; under setting [2], “inactive; negative”; (Test System: AMES SALMONELLA TYPHIMURIUM, Strain/Indicator: TA98, Metabolic Activation: RAT LIVER S-9, AROCLOR 1254 (10%), Method: PREINCUBATION) “inactive; negative”; under setting [3], “inactive; negative”; (Test System: AMES SALMONELLA TYPHIMURIUM, Strain/Indicator: TA98, Metabolic Activation: S-9, Method: STANDARD PLATE) “inactive; negative”. Further, the mutagenic call was “inactive; negative” (Test System: AMES SALMONELLA TYPHIMURIUM, Strain/Indicator: TA100, Metabolic Activation: HAMSTER LIVER S-9, AROCLOR 1254 (10%), Method: PREINCUBATION); “inactive; negative” under setting [4]; “inactive; negative” under setting [5]; “inactive; negative” (Test System: AMES SALMONELLA TYPHIMURIUM, Strain/Indicator: TA100, Metabolic Activation: RAT LIVER S-9, AROCLOR 1254 (10%), Method: PREINCUBATION); “inactive; negative” under setting [6]; “inactive; negative” (Test System: AMES SALMONELLA TYPHIMURIUM, Strain/Indicator: TA100, Metabolic Activation: S-9, Method: STANDARD PLATE). Besides, the mutagenic call (Test System: AMES SALMONELLA TYPHIMURIUM, Strain/Indicator: TA102, Metabolic Activation: NONE, Method: PREINCUBATION) is “inactive; negative”; the mutagenic call (Test System: AMES SALMONELLA TYPHIMURIUM, Strain/Indicator: TA102, Metabolic Activation: RAT, LIVER, S-9, AROCLOR 1254, Method: PREINCUBATION) is “inactive; negative”; the mutagenic call (Test System: AMES SALMONELLA TYPHIMURIUM, Strain/Indicator: TA1535, Metabolic Activation: HAMSTER LIVER S-9, AROCLOR 1254 (10%), Method: PREINCUBATION) is “inactive; negative”; the mutagenic call under setting [7] is “inactive; negative”; the mutagenic call (Test System: AMES SALMONELLA TYPHIMURIUM, Strain/Indicator: TA1535, Metabolic Activation: RAT LIVER S-9, AROCLOR 1254 (10%), Method: PREINCUBATION) is “inactive; negative”; the mutagenic call (Test System: AMES SALMONELLA TYPHIMURIUM, Strain/Indicator: TA1537, Metabolic Activation: HAMSTER LIVER S-9, AROCLOR 1254 (10%), Method: PREINCUBATION) is “inactive; negative”. Also, the mutagenic call is, setting by setting: under setting [8], “inactive; negative”; (Test System: AMES SALMONELLA TYPHIMURIUM, Strain/Indicator: TA1537, Metabolic Activation: RAT LIVER S-9, AROCLOR 1254 (10%), Method: PREINCUBATION) “inactive; negative”.

Consider `CCNc1cc(NC(C)=O)c(N=Nc2c(Cl)cc([N+](=O)[O-])cc2[N+](=O)[O-])cc1OC`, for which the mutagenic call (End Point: IN VITRO CHROMOSOMAL ABERRATIONS, Test System: CHL CELLS, Metabolic Activation: NONE) was “inactive; negative; precipitation of test chemical observed above 0.01 mg/ml; also recorded: active; positive (ploidy changes); precipitation of test chemical observed above 0.01 mg”.

On to `Fc1c(F)c(Cl)c(F)c(Cl)c1F`, for which the mutagenic call is, setting by setting: under setting [1], “inactive; negative”; under setting [3], “inactive; negative”; under setting [4], “inactive; negative”; under setting [6], “inactive; negative”; under setting [7], “inactive; negative”; (Test System: AMES SALMONELLA TYPHIMURIUM, Strain/Indicator: TA1535, Metabolic Activation: RAT, LIVER, S-9, AROCLOR 1254, Method: PREINCUBATION) “inactive; negative”. Further, the mutagenic call is “inactive; negative” under setting [8]; “inactive; negative” (Test System: AMES SALMONELLA TYPHIMURIUM, Strain/Indicator: TA1537, Metabolic Activation: RAT, LIVER, S-9, AROCLOR 1254, Method: PREINCUBATION); “inactive; negative” (Test System: AMES SALMONELLA TYPHIMURIUM, Strain/Indicator: TA1538, Metabolic Activation: NONE, Method: PREINCUBATION); “inactive; negative” (Test System: AMES SALMONELLA TYPHIMURIUM, Strain/Indicator: TA1538, Metabolic Activation: RAT, LIVER, S-9, AROCLOR 1254, Method: PREINCUBATION); “inactive; negative” (Test System: CHINESE HAMSTER OVARY, Strain/Indicator: CHO-K1-BH4 (HGPRT)/6-THIOGUANINE, Metabolic Activation: NONE, Method: SUSPENSION/PLATE); “inactive; negative” (Test System: CHINESE HAMSTER OVARY, Strain/Indicator: CHO-K1-BH4 (HGPRT)/6-THIOGUANINE, Metabolic Activation: RAT, LIVER, S-9, AROCLOR 1254, Method: SUSPENSION/PLATE).

Take `O=C(O)CCC(=O)N(O)c1ccc(Cl)cc1`: the mutagenic call is “inactive; negative” under setting [2], “active; positive” under setting [9], “inactive; negative” under setting [5] and “active; positive” under setting [10].

For the molecule `C[C@H](CCC(=O)O)[C@H]1CC[C@H]2[C@@H]3C(=O)C[C@@H]4CC(=O)CC[C@]4(C)[C@H]3CC[C@]12C`, the mutagenic call (Test System: AMES SALMONELLA TYPHIMURIUM, Strain/Indicator: TA98, Metabolic Activation: NONE, Method: FLUCTUATION TEST) was “inactive; negative”; the mutagenic call under setting [1] is “inactive; negative”; the mutagenic call (Test System: AMES SALMONELLA TYPHIMURIUM, Strain/Indicator: TA98, Metabolic Activation: RAT, LIVER, S-9, PCB, Method: PREINCUBATION) is “inactive; negative”; the mutagenic call (Test System: AMES SALMONELLA TYPHIMURIUM, Strain/Indicator: TA100, Metabolic Activation: NONE, Method: FLUCTUATION TEST) was “inactive; negative”.

In the case of `O=[N+]([O-])c1ccc(/C=N/n2cccn2)o1`, the mutagenic call by setting is: (Test System: AMES SALMONELLA TYPHIMURIUM, Strain/Indicator: TA97, Metabolic Activation: NONE, Method: STANDARD PLATE) “active; positive”; under setting [2], “active; positive”; under setting [5], “active; positive”; (Test System: AMES SALMONELLA TYPHIMURIUM, Strain/Indicator: TA102, Metabolic Activation: NONE, Method: STANDARD PLATE) “active; positive”.

`COc1cc(N)cc(OC)c1N`: the mutagenic call runs as follows: under setting [2], “inactive; negative”; under setting [9], “inactive; negative”; under setting [5], “inactive; negative”; under setting [10], “inactive; negative”; (Test System: AMES SALMONELLA TYPHIMURIUM, Strain/Indicator: TA1535, Metabolic Activation: NONE, Method: STANDARD PLATE) “inactive; negative”; (Test System: AMES SALMONELLA TYPHIMURIUM, Strain/Indicator: TA1535, Metabolic Activation: RAT, LIVER, S-9, AROCLOR 1254, Method: STANDARD PLATE) “inactive; negative”. The mutagenic call was “inactive; negative” (Test System: AMES SALMONELLA TYPHIMURIUM, Strain/Indicator: TA1537, Metabolic Activation: NONE, Method: STANDARD PLATE); “inactive; negative” (Test System: AMES SALMONELLA TYPHIMURIUM, Strain/Indicator: TA1537, Metabolic Activation: RAT, LIVER, S-9, AROCLOR 1254, Method: STANDARD PLATE); “inactive; negative” (Test System: AMES SALMONELLA TYPHIMURIUM, Strain/Indicator: TA1538, Metabolic Activation: NONE, Method: STANDARD PLATE); “inactive; negative” (Test System: AMES SALMONELLA TYPHIMURIUM, Strain/Indicator: TA1538, Metabolic Activation: RAT, LIVER, S-9, AROCLOR 1254, Method: STANDARD PLATE).

(Values after PubChem BioAssay AID1259407 (Chemical Carcinogenesis Research Information System (CCRIS), 2018).)
